Laboratory results: ChEMBL document CHEMBL1125021, “4-[(Carboxymethyl)oxy]- and 4-[(carboxymethyl)amino]-5,7-dichloroquinoline-2-carboxylic acid: new antagonists of the strychnine-insensitive glycine binding site on the N-methyl-D-aspartate receptor complex” (J Med Chem, 1990)

Key:
[1] = Antagonistic activity against N-methyl-D-aspartate glutamate receptor induced cGMP in rat cerebellar slices..; assay type: functional
[2] = target: Glutamate NMDA receptor; test: Binding activity against N-methyl-D-aspartate glutamate receptor in rat brain homogenate using [3H]CPP as the radioligand.; assay type: tissue-based
[3] = Selectivity ratio as the ratio of IC50 values for [3H]CPP/[3H]-gly
[4] = target: Glutamate NMDA receptor; test: Binding activity against N-methyl-D-aspartate glutamate receptor in rat brain homogenate using [3H]-glycine as the radioligand.; assay type: tissue-based

Row | IC50 [1] | IC50 [2] | Ratio [3] | IC50 [4] | Structure (SMILES)
1 | 3.5 µM | 37 µM | 463 | – | O=C(O)c1cc(O)c2c(Cl)cc(Cl)cc2n1
2 | 3.6 µM | 140 µM | 1400 | 0.1 µM | O=C(O)CNc1cc(C(=O)O)nc2cc(Cl)cc(Cl)c12
3 | 225 µM | 893 µM | 99 | 9 µM | O=C(O)COc1cc(C(=O)O)nc2cc(Cl)cc(Cl)c12
4 | 8 µM | – | 405 | – | O=C(O)c1cc(O)c2ccc(Cl)cc2n1 [7-CHLOROKYNURENIC ACID]
